Measurements taken from ChEMBL document CHEMBL1201862, “PubChem BioAssay data set” (2004).
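A five-concentration, 48-hour dose response in 96-well plates underlies each endpoint, interpolated linearly between surrounding concentrations. GI50 = concentration required for 50% inhibition of growth.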 The source made the active and inactive calls. Rule as the data show it: active = GI50 up to about 1.1 µM and inactive = higher.

Key:
Assay in all cases: NCI-60 cell line screen, 48 h
KM-20L2 = system: KM-20L2
LXFL 529 = system: LXFL 529
HCT-15 = system: HCT-15
A498 = system: A498
SNB-78 = system: SNB-78
KM12 = system: KM12
HOP-18 = system: HOP-18
CAKI-1 = system: CAKI-1
SK-MEL-28 = system: SK-MEL-28
U-251 = system: U-251
786-0 = system: 786-0
DMS-114 = system: DMS-114
HT-29 = system: HT-29
OVCAR-5 = system: OVCAR-5
M19-MEL = system: M19-MEL
UACC-257 = system: UACC-257
M14 = system: M14
HOP-62 = system: HOP-62
SW-620 = system: SW-620
TK-10 = system: TK-10
UACC-62 = system: UACC-62
SNB-19 = system: SNB-19
SN12C = system: SN12C
IGROV-1 = system: IGROV-1
OVCAR-3 = system: OVCAR-3
LOX IMVI = system: LOX IMVI
K562 = system: K562
SK-MEL-5 = system: SK-MEL-5
DMS-273 = system: DMS-273
NCI-H226 = system: NCI-H226
OVCAR-8 = system: OVCAR-8
HL-60 = system: HL-60
ACHN = system: ACHN
OVCAR-4 = system: OVCAR-4
UO-31 = system: UO-31
CCRF-CEM = system: CCRF-CEM
SK-MEL-2 = system: SK-MEL-2
NCI-H23 = system: NCI-H23
SF-268 = system: SF-268
NCI-H460 = system: NCI-H460
SR = system: SR
EKVX = system: EKVX
SK-OV-3 = system: SK-OV-3
HCT-116 = system: HCT-116
DLD-1 = system: DLD-1
HCC 2998 = system: HCC 2998
NCI-H522 = system: NCI-H522
SF-295 = system: SF-295
RXF 393 = system: RXF 393
COLO 205 = system: COLO 205
RPMI-8226 = system: RPMI-8226
Malme-3M = system: Malme-3M
MOLT-4 = system: MOLT-4
SNB-75 = system: SNB-75
A549 = system: A549

Measured: GI50

Cc1cc(C)c2c(c1)CSCc1cc(C)cc(C)c1-2
32.4 µM: HCT-15
inactive: KM-20L2 35.1 µM | LXFL 529 57.5 µM | A498 28.1 µM | SNB-78 25.1 µM | KM12 42.6 µM | HOP-18 37.6 µM | CAKI-1 26.2 µM | SK-MEL-28 1.72 µM | U-251 19.8 µM | 786-0 32.5 µM | DMS-114 25.2 µM | HT-29 19.3 µM | OVCAR-5 29.9 µM | M19-MEL 25.1 µM | UACC-257 24.8 µM | M14 22.6 µM | HOP-62 27.6 µM | SW-620 71.8 µM | TK-10 > 100 µM | UACC-62 23.4 µM | SNB-19 44.8 µM | SN12C 35.2 µM | IGROV-1 34.1 µM | OVCAR-3 30.3 µM | LOX IMVI 17.3 µM | K562 32.8 µM | SK-MEL-5 21.6 µM | DMS-273 58.1 µM | NCI-H226 38.8 µM | OVCAR-8 33 µM | HL-60 21.1 µM | ACHN 35.4 µM | OVCAR-4 39.2 µM | UO-31 39.4 µM | CCRF-CEM 23 µM | SK-MEL-2 21.3 µM | NCI-H23 36.9 µM | SF-268 38.7 µM | NCI-H460 24.2 µM | SR 23.9 µM | EKVX 24.2 µM | SK-OV-3 88.9 µM | HCT-116 22 µM | DLD-1 33.3 µM | HCC 2998 35.2 µM | NCI-H522 22.5 µM | SF-295 25.6 µM | RXF 393 39.4 µM | COLO 205 26.5 µM | RPMI-8226 22.9 µM | Malme-3M 18.1 µM | MOLT-4 21.1 µM | SNB-75 37.3 µM | A549 30.9 µM
